Results on one molecule are retold here after publication PMC4979060, “Structural basis of metallo-β-lactamase, serine-β-lactamase and penicillin-binding protein inhibition by cyclic boronates” (Nature Communications, 2016).

One series deals with T1, BcII (Bacillus cereus, UniProt P04190).
T1 construct: made in house; host or cells: E. coli
The series is described as follows: Fluorogenic β-lactamase inhibition assay (FC-5 substrate), BcII. The class given is biochemical. On the procedure: (§1) Kinetic and inhibition analyses, and ^19F NMR studies[10] against bacterial β-lactamases were performed as described. The FC-5 cephalosporin[9] was used as substrate for BcII, VIM-2, IMP-1, NDM-1, SPM-1, TEM-1 and OXA-10, meropenem[28] for CphA and nitrocefin[34] for PBP 3 and PBP 5.
(§2) In brief IC50 values were determined by preincubation of the appropriate amount of enzyme with the cyclic boronates in the assay buffers for 10 min at room temperature prior to the initiation of the assay by the addition of the appropriate substrate. The enzyme concentrations used are the following: 1 nM BcII, 100 nM VIM-2, 10 nM IMP-1, 10 nM NDM-1, 1 nM SPM-1, 1 nM TEM-1, 1 nM OXA-10, 2.5 nM CphA, 4 μM PBP 3 and 5 μM PBP 5; note that the final concentrations are stated. The assay buffers used are the following: 50 mM HEPES, pH 7.2 supplemented with 1 μg BSA, 1 μg ZnSO4 and 0.01% Triton for BcII, VIM-2, IMP-1, NDM-1 and SPM-1, 15 mM MES, pH 6.5 for CphA, 50 mM HEPES, pH 7.2 supplemented with 200 mM NaCl and 0.01% Triton 100 for TEM-1, 100 mM sodium phosphate, pH 7.2 supplemented with 50 mM NaHCO3 and 0.01% Triton 100 for OXA-10 and 50 mM HEPES, pH 7.2 supplemented with 200 mM NaCl and 0.01% Triton 100 for PBP 3 and PBP 5. The amount of substrates used is the following: 5 μM for BcII, VIM-2, IMP-1, NDM-1 and SPM-1, 10 μM for TEM-1 and OXA-10, 125 μM for CphA and 25 μM for PBP 3 and PBP 5; note that the final concentrations are stated.
(§3) The experiments were performed using a PHERAstar FS microplate reader (BMG Labtech) at room temperature (24–25 °C). All enzymes and inhibitors were prepared in the specific assay buffer. The kinetic values in this study are the means from at least three independent measurements; at least nine different concentrations of the inhibitor were used to determine the kinetic parameters (IC50). The IC50 values were determined using the software package Graph Prism 5.

Another series deals with HEK293 cells. The series is described as follows: Cytotoxicity assay (MTS). To be noted: human HEK293 cells, concentrations up to 100 μM, 24 h. The series is classed as cell-based. The protocol: HEK293 cells were seeded (2,000 per well) in normal DMEM in 96-well plates.[34] After 24 h, wells were dosed with titrated concentration of compounds in 1% dimethyl sulphoxide (DMSO)—final volume of media about 100 μl. Following a further 24 h incubation period, 20 μl tetrazolium (MTS, CellTiter96Aqueous One Solution (Promega)) was added to the media in each well. The plate was incubated at 37 °C, 5% CO2 for 4 h in the dark before absorbance was read at 490 nm to determine cell proliferation values.

In another series the target is M67C NDM-1 (Klebsiella pneumoniae, UniProt C7C422, M67C). The series is described as follows: 19F-protein NMR binding study. To be noted: M67C NDM-1 labelled with 1,1,1-trifluoro-3-bromo acetone. The protocol:
as §1
Supplementary Fig. 1. 19F NMR analyses of the NDM-1*-di-Zn(II)-2 complex. Titration using 2 gave rise to a new signal corresponding to a 2-NDM-1* complex, even at low concentrations of 2 indicating tight binding; at a 1:1, enzyme:inhibitor ratio (NDM-1*:2) no signals corresponding to uncomplexed NDM-1* species were observed. NDM-1* = NDM-1 M67C variant modified by reaction with BrCH COCF 1.
Supplementary Fig. 2. Cytotoxicity of 1,2 and Staurosporine (a control) using HEK293 cells.
(also on this page, place not known: enzyme: inhibitor NDM -1 BrCH2COCF3 -2 -1 0 1 0.5 1.0 1.5 - Log concentration (µM) Abs 490 HEK293 - 2 HEK293 - 1 Staurosporine HEK293) […]

For a further series, the target named is T2, PBP 5 (dacA) (Escherichia coli, UniProt P0AEB2).
T2 construct: made in house; host or cells: E. coli
T2 sequence (P0AEB2 30-403): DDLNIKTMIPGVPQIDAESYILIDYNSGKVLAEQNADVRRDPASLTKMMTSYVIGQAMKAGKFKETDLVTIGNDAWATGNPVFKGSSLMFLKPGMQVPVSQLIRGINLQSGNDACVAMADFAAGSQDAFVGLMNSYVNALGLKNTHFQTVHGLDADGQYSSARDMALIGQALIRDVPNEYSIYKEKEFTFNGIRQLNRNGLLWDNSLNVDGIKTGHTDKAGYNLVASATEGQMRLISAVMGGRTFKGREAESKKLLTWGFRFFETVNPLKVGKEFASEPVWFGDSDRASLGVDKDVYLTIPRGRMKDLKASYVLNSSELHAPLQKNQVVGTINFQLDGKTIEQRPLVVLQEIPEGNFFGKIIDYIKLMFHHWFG
Kind of series: PBP inhibition assay (nitrocefin substrate), PBP 5. The class given is biochemical. The protocol:
as §1
In brief IC50 values were determined by preincubation of the appropriate amount of enzyme with the cyclic boronates in the assay buffers for 10 min at room temperature prior to the initiation of the assay by the addition of the appropriate substrate. The enzyme concentrations used are the following: 1 nM BcII, 100 nM VIM-2, 10 nM IMP-1, 10 nM NDM-1, 1 nM SPM-1, 1 nM TEM-1, 1 nM OXA-10, 2.5 nM CphA, 4 μM PBP 3 and 5 μM PBP 5; note that the final concentrations are stated. […]
The experiments were performed using a PHERAstar FS microplate reader (BMG Labtech) at room temperature (24–25 °C). […] The IC50 values were determined using the software package Graph Prism 5.

The subject of series [1] is K. pneumoniae Ecl8 pSU18:NDM-1. Kind of series: MIC by broth microdilution and checkerboard. The following applies: Klebsiella pneumoniae, read-out: 2 MIC, 2 alone; Ecl8 pSU18:NDM-1 (blaSHV-1; blaNDM-1). The class given is cell-based. The text has this:
Bacterial strains: E. coli ATCC 25922 (ref. [35]) and K. pneumoniae NCTC 5055 (ref. [36]) were used as reference strains. K. pneumoniae Ecl8 (ref. [16]) and its ramR knock-out[37] were used as previously described. K. pneumoniae strain IR8 (ref. [40]), and E. coli strains IR10 and IR60 (ref. [17]) were generous gifts of Prof. T.R. Walsh. Plasmid pSU18:NDM-1 contains the complete blaNDM-1 open reading frame, together with its promoter, cloned into plasmid pSU18 (ref. [41]). The recombinant plasmid was made by PCR amplifying the blaNDM-1 gene and surrounding sequences from E. coli IR10 with primers NDM1F 5′- […] -3′ and NDM1R 5′- GGCGATGACAGCATCATC -3′, TA cloning the amplicon into pCR2.1 TOPO (Invitrogen) and subcloning into pSU18 using BamHI and XbaI.
MIC values were determined by broth microdilution, in triplicate, in cation-adjusted Mueller Hinton broth (Sigma) according to the Clinical Laboratory Standards Institute (CLSI) guidelines. Experiments were carried out in microtitre plates (Corning) containing the medium plus meropenem (Sequoia Research Products, Pangbourne, UK) and/or inhibitor 2 as appropriate. Chloramphenicol (20 μg ml^−1) was included in assays of strains (K. pneumoniae Ecl8 and derivative) that carried pSU18 plasmids or derivatives (pSU18:NDM-1) to ensure maintenance of plasmids throughout. Inhibitor 2 was dissolved in DMSO to 100 mg ml^−1 and diluted in broth. The final concentration of DMSO in the assays was kept constant at 0.01% (experiments using 10 μg ml^−1 inhibitor) or 0.03% (experiments using 25 μg ml^−1 inhibitor). Plates were incubated overnight at 37 °C for 18–24 h and absorbance at 600 nm read using a Polarstar Omega (BMG LabTech) plate reader.

A further series has as its target T3, OXA-10 (Pseudomonas aeruginosa, UniProt P14489).
T3 construct: made in house; host or cells: E. coli
The series is described as follows: Fluorogenic β-lactamase inhibition assay (FC-5 substrate), OXA-10. The class given is biochemical. On the procedure:
as §1, §2, §3

Another series addresses T4, TEM-1 (Escherichia coli, UniProt P62593).
T4 construct: made in house; host or cells: E. coli
The series is described as follows: Fluorogenic β-lactamase inhibition assay (FC-5 substrate), TEM-1. The class given is biochemical. The protocol:
as §1, §2, §3

For a further series, the target named is T5, VIM-2 (Escherichia coli, UniProt Q5U7L7).
T5 construct: made in house; host or cells: E. coli
The series is described as follows: Fluorogenic β-lactamase inhibition assay (FC-5 substrate), VIM-2. The series is classed as biochemical. On the procedure:
as §1, §2, §3

As usually defined, the pIC50 is −log10 of the IC50, conventionally taken in molar units. Usually IC50 stands for the concentration at which inhibition is half-maximal. High values mean weaker potency, low ones greater potency. What is called MIC is the lowest concentration that inhibits growth of the organism.

T4 sequence (P62593 24-286 limits assumed): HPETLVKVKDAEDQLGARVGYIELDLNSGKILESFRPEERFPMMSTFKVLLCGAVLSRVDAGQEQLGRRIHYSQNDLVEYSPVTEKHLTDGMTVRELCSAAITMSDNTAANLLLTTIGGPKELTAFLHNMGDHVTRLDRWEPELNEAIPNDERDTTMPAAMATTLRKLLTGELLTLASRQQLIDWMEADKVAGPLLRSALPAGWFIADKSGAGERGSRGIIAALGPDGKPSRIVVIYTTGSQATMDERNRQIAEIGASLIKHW
T1 sequence (P04190 31-257): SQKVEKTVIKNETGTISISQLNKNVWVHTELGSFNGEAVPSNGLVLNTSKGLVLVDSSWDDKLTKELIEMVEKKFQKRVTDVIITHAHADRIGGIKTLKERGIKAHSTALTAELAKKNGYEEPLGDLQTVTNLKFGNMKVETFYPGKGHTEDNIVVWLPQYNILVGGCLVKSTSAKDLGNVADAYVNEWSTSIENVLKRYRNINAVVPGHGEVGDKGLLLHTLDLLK
T3 sequence (P14489 20-266, species assumed): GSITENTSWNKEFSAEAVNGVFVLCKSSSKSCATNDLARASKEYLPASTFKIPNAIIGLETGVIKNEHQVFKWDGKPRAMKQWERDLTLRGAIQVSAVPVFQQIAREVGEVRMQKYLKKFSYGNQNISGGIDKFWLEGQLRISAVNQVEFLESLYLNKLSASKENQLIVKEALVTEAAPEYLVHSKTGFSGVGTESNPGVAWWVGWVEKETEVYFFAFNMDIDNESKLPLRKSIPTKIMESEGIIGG
M67C NDM-1, sequence (C7C422 29-270 M67C): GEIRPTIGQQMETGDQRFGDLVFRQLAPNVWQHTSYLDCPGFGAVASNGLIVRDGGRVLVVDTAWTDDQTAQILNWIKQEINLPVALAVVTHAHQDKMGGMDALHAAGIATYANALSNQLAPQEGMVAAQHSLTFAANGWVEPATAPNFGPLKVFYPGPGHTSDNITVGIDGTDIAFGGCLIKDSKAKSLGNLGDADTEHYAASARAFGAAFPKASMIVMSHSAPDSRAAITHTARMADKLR

Turning to `NCc1ccc(C(=O)N[C@H]2Cc3cccc(C(=O)O)c3O[B-]2(O)O)cc1` [compound 2], the pIC50 was 6.5 against BcII; 8.7 against PBP 5 (dacA); 5.2 against OXA-10; 8.4 against TEM-1; 8.5 against VIM-2. Further, the IC50 against BcII (10 min preincubation) is 300 nM; against PBP 5 (dacA) (10 min preincubation), 1.6 nM; on OXA-10 (10 min preincubation), 5100 nM; at TEM-1 (10 min preincubation), 3 nM; at VIM-2 (10 min preincubation) it was 3 nM. In addition, the cytotoxicity result in the series on HEK293 cells is on record as “Neither 1 nor 2 showed cytotoxicity”. Moreover, the “binding to the active site by 19F NMR titration” value at M67C NDM-1 is on record as “tight binding”. Further, in series [1], the MIC is > 128 µg/mL.
